Experimental data from ChEMBL document CHEMBL3826905, “1'-Homonucleosides and their structural analogues: A review” (Eur J Med Chem, 2016).
≈ marks a conversion by molar mass, not a printed value.

Tests used:
Hepatitis C virus = test: Antiviral activity against Hepatitis C virus; format: functional, organism-based, Hepacivirus hominis
[1] = Cytostatic activity against mouse L1210/0 cells; format: functional, cell-based; conditions: Mus musculus, L1210/0
MOLT-4 = test: Cytostatic activity against human Molt4/C8 cells; format: functional, cell-based; conditions: Homo sapiens, MOLT-4
CCRF-CEM = test: Cytostatic activity against human CEM/0 cells; format: functional, cell-based
Influenza A virus = test: Antiviral activity against Influenza A virus; format: functional, organism-based
[2] = Antiproliferative activity against human Molt4/C8 cells; format: functional, cell-based; conditions: MOLT-4
[3] = Antiproliferative activity against mouse L1210/0 cells; format: functional, cell-based

OCC12C=CC(Cn3cnc4c(Cl)ncnc43)(O1)c1ccccc12 (stereo not drawn) gave an EC50 (Hepatitis C virus) of 45.1 µM.

In the case of Nc1ncnc2c1ncn2C[C@@H]1C[C@H](CO)c2ccccc21, the IC50 [1] is reported as 24 µg/mL (≈ 81.3 µM), the IC50 (MOLT-4) is reported as 24 µg/mL (≈ 81.3 µM) and the IC50 (CCRF-CEM) is reported as 24 µg/mL (≈ 81.3 µM).

OCC12CCC(O1)c1cc3ccccc3cc12 (stereo not drawn) gave an EC50 (Hepatitis C virus) of 6.31 µM.

Cn1ncc2c1[C@H](Cn1cnc3c(Cl)ncnc31)C[C@@H]2CO[Si](c1ccccc1)(c1ccccc1)C(C)(C)C showed an IC50 [1] of 3.2 µg/mL (≈ 5.74 µM), an IC50 (MOLT-4) of 3.2 µg/mL (≈ 5.74 µM) and an IC50 (CCRF-CEM) of 3.2 µg/mL (≈ 5.74 µM).

For CC(C)Nc1ncnc2c1ncn2C[C@@H]1C[C@H](CO)c2ccccc21, the IC50 [1] was 24 µg/mL (≈ 71.1 µM), the IC50 (MOLT-4) was 24 µg/mL (≈ 71.1 µM) and the IC50 (CCRF-CEM) was 24 µg/mL (≈ 71.1 µM).

For Cc1cn(C[C@@H]2C[C@H](CO)c3ccccc32)c(=O)[nH]c1=O, the IC50 [1] was 81 µg/mL (≈ 283 µM), the IC50 (MOLT-4) was 81 µg/mL (≈ 283 µM) and the IC50 (CCRF-CEM) was 81 µg/mL (≈ 283 µM).

Compound Cn1ncc2c1[C@H](Cn1ccc(=O)[nH]c1=O)C[C@@H]2CO[Si](c1ccccc1)(c1ccccc1)C(C)(C)C has an IC50 [1] of 3.2 µg/mL (≈ 6.22 µM), an IC50 (MOLT-4) of 3.2 µg/mL (≈ 6.22 µM) and an IC50 (CCRF-CEM) of 3.2 µg/mL (≈ 6.22 µM).

With Nc1ccn(C[C@H]2C[C@H](O)[C@@H](CO)O2)c(=O)n1 the IC50 (Influenza A virus) was 67.3 µg/mL (≈ 279 µM).

Compound Cn1ncc2c1[C@H](Cn1cnc3c(Cl)nc(N)nc31)C[C@@H]2CO has an IC50 [1] of 3.2 µg/mL (≈ 9.59 µM), an IC50 (MOLT-4) of 3.2 µg/mL (≈ 9.59 µM) and an IC50 (CCRF-CEM) of 3.2 µg/mL (≈ 9.59 µM).

In the case of O[C@H]1C[C@@]2(Cn3cnc4c(Cl)ncnc43)O[C@@H]1c1ccccc12, the EC50 (Hepatitis C virus) is reported as 45.1 µM.

Work on OC[C@H]1C[C@@H](Cn2cnc3c(O)ncnc32)c2ccccc21 yielded an IC50 [1] of 24 µg/mL (≈ 81 µM), an IC50 (MOLT-4) of 24 µg/mL (≈ 81 µM) and an IC50 (CCRF-CEM) of 24 µg/mL (≈ 81 µM).

With Cn1ncc2c1[C@@H](CO[Si](c1ccccc1)(c1ccccc1)C(C)(C)C)C[C@H]2Cn1cnc2c(O)ncnc21 the IC50 [1] was 3.2 µg/mL (≈ 5.94 µM), the IC50 (MOLT-4) was 3.2 µg/mL (≈ 5.94 µM) and the IC50 (CCRF-CEM) was 3.2 µg/mL (≈ 5.94 µM).

Work on COc1ncnc2c1ncn2C[C@@H]1C[C@H](CO)c2ccccc21 yielded an IC50 [1] of 24 µg/mL (≈ 77.3 µM), an IC50 (MOLT-4) of 24 µg/mL (≈ 77.3 µM) and an IC50 (CCRF-CEM) of 24 µg/mL (≈ 77.3 µM).

Nc1ccn(C[C@H]2C[C@H](OCc3ccccc3)[C@@H](COCc3ccccc3)O2)c(=O)n1 gave an IC50 (Influenza A virus) of 57.4 µg/mL (≈ 136 µM).

O=C(OCC12C=CC(O1)c1cc3ccccc3cc12)c1ccccc1 (stereo not drawn) gave an EC50 (Hepatitis C virus) of 6.31 µM.

Compound OC[C@H]1C[C@@H](Cn2cnc3c(Cl)ncnc32)c2ccccc21 has an IC50 [1] of 24 µg/mL (≈ 76.2 µM), an IC50 (MOLT-4) of 24 µg/mL (≈ 76.2 µM) and an IC50 (CCRF-CEM) of 24 µg/mL (≈ 76.2 µM).

Work on Nc1ncnc2c1ncn2C[C@H]1C[C@H](OCc2ccccc2)[C@@H](COCc2ccccc2)O1 yielded an IC50 (Influenza A virus) of 39.9 µg/mL (≈ 89.6 µM).

CCCNc1ncnc2c1ncn2C[C@@H]1C[C@H](CO)c2ccccc21 showed an IC50 [1] of 24 µg/mL (≈ 71.1 µM), an IC50 (MOLT-4) of 24 µg/mL (≈ 71.1 µM) and an IC50 (CCRF-CEM) of 24 µg/mL (≈ 71.1 µM).

In the case of Clc1ncnc2c1ncn2CC12C=CC(O1)c1ccccc12 (stereo not drawn), the EC50 (Hepatitis C virus) is reported as 6.31 µM.

Work on OC[C@H]1C[C@@H](Cn2cnc3c(NC4CC4)ncnc32)c2ccccc21 yielded an IC50 [1] of 24 µg/mL (≈ 71.6 µM), an IC50 (MOLT-4) of 24 µg/mL (≈ 71.6 µM) and an IC50 (CCRF-CEM) of 24 µg/mL (≈ 71.6 µM).

Compound O=c1ccn(C[C@H]2C[C@H](OCc3ccccc3)[C@@H](COCc3ccccc3)O2)c(=O)[nH]1 has an IC50 (Influenza A virus) of 108 µg/mL (≈ 256 µM).

With Cc1cn(C[C@H]2C[C@H](OCc3ccccc3)[C@@H](COCc3ccccc3)O2)c(=O)[nH]c1=O the IC50 (Influenza A virus) was 70.3 µg/mL (≈ 161 µM).

Work on O=c1[nH]c(=O)n([C@H]2CC[C@@H](CO)C2)cc1I yielded an IC50 [2] of 73 µg/mL (≈ 217 µM) and an IC50 [3] of 73 µg/mL (≈ 217 µM).

Work on O=c1[nH]cnc2c1ncn2C[C@H]1C[C@H](O)[C@@H](CO)O1 yielded an IC50 (Influenza A virus) of 25.2 µg/mL (≈ 94.6 µM).

Compound Cc1ccc(-c2ncnc3c2ncn3C[C@@H]2C[C@H](CO)c3ccccc32)cc1 has an IC50 [1] of 1.4 µg/mL (≈ 3.78 µM), an IC50 (MOLT-4) of 1.4 µg/mL (≈ 3.78 µM) and an IC50 (CCRF-CEM) of 1.4 µg/mL (≈ 3.78 µM).

Work on O=c1[nH]cnc2c1ncn2C[C@H]1C[C@H](OCc2ccccc2)[C@@H](COCc2ccccc2)O1 yielded an IC50 (Influenza A virus) of 24.3 µg/mL (≈ 54.4 µM).

Nc1ncnc2c1ncn2C[C@H]1C[C@H](O)[C@@H](CO)O1 gave an IC50 (Influenza A virus) of 49.2 µg/mL (≈ 185 µM).

For OC[C@@]12O[C@@](Cn3cnc4c(Cl)ncnc43)(c3ccccc31)[C@H](O)[C@@H]2O, the EC50 (Hepatitis C virus) was 45.1 µM.

For CCOc1ncnc2c1ncn2C[C@@H]1C[C@H](CO)c2ccccc21, the IC50 [1] was 24 µg/mL (≈ 74 µM), the IC50 (MOLT-4) was 24 µg/mL (≈ 74 µM) and the IC50 (CCRF-CEM) was 24 µg/mL (≈ 74 µM).

OCC12CCC(Cn3cnc4c(Cl)ncnc43)(O1)c1ccccc12 (stereo not drawn) showed an EC50 (Hepatitis C virus) of 45.1 µM.

Cc1cn(C[C@H]2C[C@H](O)[C@@H](CO)O2)c(=O)[nH]c1=O gave an IC50 (Influenza A virus) of 70.4 µg/mL (≈ 275 µM).

OC[C@H]1C[C@@H](Cn2cnc3c(-c4ccc(Cl)cc4)ncnc32)c2ccccc21 showed an IC50 [1] of 0.63 µg/mL (≈ 1.61 µM), an IC50 (MOLT-4) of 0.63 µg/mL (≈ 1.61 µM) and an IC50 (CCRF-CEM) of 0.63 µg/mL (≈ 1.61 µM).
